According to PMC11951083, “Highly Specific Miniaturized Fluorescent Monoacylglycerol Lipase Probes Enable Translational Research” (Journal of the American Chemical Society, 2025):

Experiments:
beta2 (h) = beta2 (h) (Homo sapiens, UniProt P07550); experiment: beta2 (h) (antagonist radioligand); conditions: read-out: Inhibition beta2 (h) (antagonist radioligand)
5-HT1A (h) = molecular target: T1, 5-HT1A (h) (Homo sapiens, UniProt P08908); experiment: 5-HT1A (h) (agonist radioligand); conditions: read-out: Inhibition 5-HT1A (h) (agonist radioligand)
T1 sequence (P08908 1-422): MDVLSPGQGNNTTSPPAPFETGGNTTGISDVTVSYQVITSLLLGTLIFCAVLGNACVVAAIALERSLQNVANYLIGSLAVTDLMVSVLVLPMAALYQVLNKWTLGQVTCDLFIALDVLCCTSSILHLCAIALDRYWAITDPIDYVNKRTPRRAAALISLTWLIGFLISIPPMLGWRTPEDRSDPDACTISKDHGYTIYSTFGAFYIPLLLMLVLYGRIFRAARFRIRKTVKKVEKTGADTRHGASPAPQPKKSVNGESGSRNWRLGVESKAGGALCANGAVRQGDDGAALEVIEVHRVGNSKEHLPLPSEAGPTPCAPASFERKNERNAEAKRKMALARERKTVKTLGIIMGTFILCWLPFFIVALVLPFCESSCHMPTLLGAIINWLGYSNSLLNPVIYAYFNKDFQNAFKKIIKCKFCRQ

Estrogen ER alpha (h) = Estrogen ER alpha (h) (Homo sapiens, UniProt P03372); experiment: Estrogen ER alpha (h) (agonist radioligand); conditions: read-out: Inhibition Estrogen ER alpha (h) (agonist radioligand)
Estrogen ER alpha (h), sequence (P03372 whole entry): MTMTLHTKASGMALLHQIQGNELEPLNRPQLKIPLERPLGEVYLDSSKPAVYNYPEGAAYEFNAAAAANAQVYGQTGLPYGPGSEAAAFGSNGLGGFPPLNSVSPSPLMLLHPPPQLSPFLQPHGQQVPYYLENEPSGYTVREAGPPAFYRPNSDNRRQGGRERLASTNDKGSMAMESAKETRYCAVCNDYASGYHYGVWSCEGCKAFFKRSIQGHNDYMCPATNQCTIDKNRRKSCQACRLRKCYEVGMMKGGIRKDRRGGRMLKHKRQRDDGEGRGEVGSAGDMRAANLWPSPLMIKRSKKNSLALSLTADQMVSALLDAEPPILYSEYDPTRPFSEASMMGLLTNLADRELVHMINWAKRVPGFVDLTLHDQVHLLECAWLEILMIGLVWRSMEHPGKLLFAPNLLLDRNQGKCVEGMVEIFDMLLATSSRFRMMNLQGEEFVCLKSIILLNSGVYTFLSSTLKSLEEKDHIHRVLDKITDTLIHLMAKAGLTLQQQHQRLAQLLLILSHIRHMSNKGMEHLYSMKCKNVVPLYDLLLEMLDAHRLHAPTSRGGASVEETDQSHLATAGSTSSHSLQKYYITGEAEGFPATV

D2S (h) = D2S (h) (Homo sapiens, UniProt P14416); experiment: D2S (h) (agonist radioligand); conditions: read-out: Inhibition D2S (h) (agonist radioligand)
D2S (h), sequence (P14416 1-414 isoform P14416-2): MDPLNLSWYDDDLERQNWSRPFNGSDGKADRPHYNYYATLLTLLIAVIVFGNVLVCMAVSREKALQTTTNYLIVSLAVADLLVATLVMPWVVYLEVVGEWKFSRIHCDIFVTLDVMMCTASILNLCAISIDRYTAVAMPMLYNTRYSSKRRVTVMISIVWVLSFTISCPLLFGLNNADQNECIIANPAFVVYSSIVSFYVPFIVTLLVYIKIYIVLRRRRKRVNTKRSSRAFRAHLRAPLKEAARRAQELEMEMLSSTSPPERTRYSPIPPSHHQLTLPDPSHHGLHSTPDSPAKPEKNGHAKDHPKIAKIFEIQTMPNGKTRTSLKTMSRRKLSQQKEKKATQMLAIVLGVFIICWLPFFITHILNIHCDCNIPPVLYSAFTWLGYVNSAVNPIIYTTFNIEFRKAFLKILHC

kappa (h) (KOP) = kappa (h) (KOP) (Homo sapiens, UniProt P41145); experiment: kappa (h) (KOP) (agonist radioligand); conditions: read-out: Inhibition kappa (h) (KOP) (agonist radioligand)
kappa (h) (KOP), sequence (P41145 whole entry): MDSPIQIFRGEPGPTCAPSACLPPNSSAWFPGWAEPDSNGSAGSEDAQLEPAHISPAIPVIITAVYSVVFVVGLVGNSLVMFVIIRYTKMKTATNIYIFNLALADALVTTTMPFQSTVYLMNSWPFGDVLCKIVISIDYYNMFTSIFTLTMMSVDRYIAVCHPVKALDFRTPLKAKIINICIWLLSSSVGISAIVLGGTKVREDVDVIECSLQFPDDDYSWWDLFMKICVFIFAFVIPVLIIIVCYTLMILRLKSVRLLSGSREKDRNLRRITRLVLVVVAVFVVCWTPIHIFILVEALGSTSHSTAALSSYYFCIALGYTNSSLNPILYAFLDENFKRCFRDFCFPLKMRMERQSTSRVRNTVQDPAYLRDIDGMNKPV

CDK2 (h) (cycA) = CDK2 (h) (cycA) (Homo sapiens, UniProt P24941); experiment: CDK2 (h) (cycA); conditions: read-out: Inhibition CDK2 (h) (cycA)
Cl- channel (GABA-gated) = Cl- channel (GABA-gated) (antagonist radioligand); conditions: 10 µM
PDE3B (h) = PDE3B (h) (Homo sapiens, UniProt Q13370); experiment: PDE3B (h); conditions: read-out: Inhibition PDE3B (h)
PDE3B (h), sequence (Q13370 whole entry): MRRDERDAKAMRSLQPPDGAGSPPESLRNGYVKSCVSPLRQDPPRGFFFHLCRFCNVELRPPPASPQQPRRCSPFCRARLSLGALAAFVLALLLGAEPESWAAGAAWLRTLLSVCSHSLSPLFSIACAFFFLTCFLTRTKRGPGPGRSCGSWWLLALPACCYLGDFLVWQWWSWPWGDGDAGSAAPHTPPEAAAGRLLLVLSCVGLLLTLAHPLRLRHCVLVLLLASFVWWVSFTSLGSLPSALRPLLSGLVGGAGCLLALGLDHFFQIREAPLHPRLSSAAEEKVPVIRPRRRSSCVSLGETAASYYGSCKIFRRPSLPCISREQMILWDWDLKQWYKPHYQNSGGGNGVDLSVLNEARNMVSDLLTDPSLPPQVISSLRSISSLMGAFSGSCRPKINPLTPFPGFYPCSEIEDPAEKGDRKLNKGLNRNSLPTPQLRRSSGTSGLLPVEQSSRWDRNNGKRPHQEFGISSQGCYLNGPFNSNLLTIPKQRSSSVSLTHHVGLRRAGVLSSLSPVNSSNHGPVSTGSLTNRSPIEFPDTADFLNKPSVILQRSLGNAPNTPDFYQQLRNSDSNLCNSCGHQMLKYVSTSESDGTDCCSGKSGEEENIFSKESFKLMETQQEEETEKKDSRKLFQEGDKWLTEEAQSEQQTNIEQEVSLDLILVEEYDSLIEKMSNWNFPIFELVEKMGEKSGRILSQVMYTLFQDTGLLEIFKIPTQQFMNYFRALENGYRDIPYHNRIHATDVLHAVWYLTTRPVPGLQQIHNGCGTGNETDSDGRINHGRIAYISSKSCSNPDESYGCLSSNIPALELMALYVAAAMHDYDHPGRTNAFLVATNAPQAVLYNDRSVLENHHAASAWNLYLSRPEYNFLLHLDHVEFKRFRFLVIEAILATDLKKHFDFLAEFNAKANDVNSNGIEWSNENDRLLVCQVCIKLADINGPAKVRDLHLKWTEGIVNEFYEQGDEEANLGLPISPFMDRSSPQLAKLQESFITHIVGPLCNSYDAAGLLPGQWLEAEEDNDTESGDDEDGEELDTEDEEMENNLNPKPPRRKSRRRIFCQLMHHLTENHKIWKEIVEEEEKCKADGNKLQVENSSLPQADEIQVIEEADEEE

MAGL = molecular target: T2, MAGL (Homo sapiens, UniProt Q99685); experiment: Surface plasmon resonance on human MAGL; type: binding; conditions: SPR
T2 sequence (Q99685 1-303): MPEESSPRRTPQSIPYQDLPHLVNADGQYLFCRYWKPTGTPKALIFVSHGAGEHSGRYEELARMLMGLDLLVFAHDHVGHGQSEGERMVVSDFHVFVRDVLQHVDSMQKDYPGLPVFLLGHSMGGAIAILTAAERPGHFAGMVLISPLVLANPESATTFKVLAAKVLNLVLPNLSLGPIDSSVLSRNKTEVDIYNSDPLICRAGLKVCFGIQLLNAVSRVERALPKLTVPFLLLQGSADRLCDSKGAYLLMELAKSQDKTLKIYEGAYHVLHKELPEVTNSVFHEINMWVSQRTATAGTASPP
Method: High throughput kinetic solubility measurement was performed as previously described in the […]
Surface plasmon resonance
EDC/NHS coupling with a final protein concentration of 0.06 mg/mL: 10 mM acetate pH 5.5 + 10µM RO7224999-000-001(reference binder). No quenching was applied after immobilization, but the surface was left with a running buffer for 1 h to hydrolyze and stabilize.
Running buffer: […], 150 mM NaCl, 0.05% P20, pH 7.4 + 50 µM EDTA, 1% DMSO Instrument:
Biacore T200 Sensorchip: CM5 Temperature: 18 °C concentration series: 5 concentration 3-fold dilution, top conc 0.5 µM, contact time 180s, dissociation time 300s before each compound a blank injection for double referencing was measured. Each compound was followed by 9 injections of Control, RO7283571 (60 s contact time, 200 s dissociation time, 10 µM) to validate surface activity and recovery to determine off rates.
Dissociation was trimmed for compounds showing faster kinetics to suppress the over-fitting of baseline drift. Data was fitted with 1:1 model with an added drift parameter to improve fit quality and to compensate from insufficient drift correction with the double referencing. Off rates (koff) were determined by recovery of reference binding. The signal was first blank subtracted, and the corrected chaser response was plotted versus time and fitted to an exponential decay model. […]

beta2 (h), sequence (P07550 whole entry): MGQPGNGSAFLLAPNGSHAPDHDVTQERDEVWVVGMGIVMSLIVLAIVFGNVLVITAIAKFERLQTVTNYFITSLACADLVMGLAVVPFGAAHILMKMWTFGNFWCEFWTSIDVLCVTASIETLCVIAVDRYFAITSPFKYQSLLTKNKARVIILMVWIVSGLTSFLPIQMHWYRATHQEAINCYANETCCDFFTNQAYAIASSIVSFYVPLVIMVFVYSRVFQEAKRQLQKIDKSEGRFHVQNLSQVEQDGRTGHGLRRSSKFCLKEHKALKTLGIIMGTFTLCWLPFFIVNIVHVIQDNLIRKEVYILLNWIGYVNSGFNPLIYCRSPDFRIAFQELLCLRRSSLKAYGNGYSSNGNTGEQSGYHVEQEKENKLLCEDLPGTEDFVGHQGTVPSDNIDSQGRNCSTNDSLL

SMILES | inhibition at 10 µM (beta2 (h)) | inhibition at 10 µM (5-HT1A (h)) | inhibition at 10 µM (Estrogen ER alpha (h)) | inhibition at 10 µM (D2S (h)) | inhibition at 10 µM (kappa (h) (KOP)) | inhibition at 10 µM (CDK2 (h) (cycA)) | Inhibition Cl- channel (GABA-gated) (antagonist radioligand) (Cl- channel (GABA-gated)) | inhibition at 10 µM (PDE3B (h)) | residence time (MAGL)
O=C(O[C@H](CO)C(F)(F)F)N1CC2(CC(CC3=C4C=CC=[N+]4[B-](F)(F)n4cccc43)C2)C1 [Compound 1] | -3.1% | 0% | 17.8% | 5.9% | 7.8% | 7.8% | 41,90% | 15.9% | 
O=C(OC(C(F)(F)F)C(F)(F)F)N1CC2(CC(CC3=C4C=CC=[N+]4[B-](F)(F)n4cccc43)C2)C1 [Compound 2] | -0.6% | -29.4% | -0.8% | -4.1% | 5.9% | 6.3% | 51,90% | 6.3% | 
O=C(OC(C(F)(F)F)C(F)(F)F)N1CC2(CC(CC3=C4C=CC(c5ccc[nH]5)=[N+]4[B-](F)(F)n4cccc43)C2)C1 [Compound 2a] | 1.8% | -5.5% | -13.7% | -2.6% | 4.9% | -5.8% | 40,80% | 12.6% | 
O=C1CO[C@H]2CCN(C(=O)N3CC4(CC(CC5=C6C=CC=[N+]6[B-](F)(F)n6cccc65)C4)C3)C[C@H]2N1 [Compound 4] |  |  |  |  |  |  |  |  | 37 min
O=C1CO[C@H]2CCN(C(=O)N3CC4(CC(CC5=C6C=CC(c7ccc[nH]7)=[N+]6[B-](F)(F)n6cccc65)C4)C3)C[C@H]2N1 [Compound 4a] | -6.2% | -2.4% | -2.5% | 3.3% | 22.7% | -8.3% | 40,30% | 13% | 
O=C(N1CC2(CC(CC3=C4C=CC=[N+]4[B-](F)(F)n4cccc43)C2)C1)N1CC2(CC(n3cnc(C4CC4)n3)C2)C1 [Compound 5] | 5.4% | 2.4% | 35% | 12.6% | 10.3% | 6.5% | 20,90% | 10.7% | 44 min
